In patent US8389552B2, “(S)-6-(2-(4-(cyclobutylsulfonyl)-1H-imidazol-1-yl)-3-cyclopentylpropanamido)nicotinic acid useful as a glucokinase activator” (Pfizer Inc., priority 2009, dated 2013):

Biological target: T1, Full-length glucokinase (beta cell isoform) (Homo sapiens, UniProt P35557)
T1 construct: Full-length glucokinase (beta cell isoform) was His-tagged at N-terminus; His tag (N); made in house; host or cells: E. coli BL21(DE3), pBCGK vector
T1 sequence (P35557 1-465): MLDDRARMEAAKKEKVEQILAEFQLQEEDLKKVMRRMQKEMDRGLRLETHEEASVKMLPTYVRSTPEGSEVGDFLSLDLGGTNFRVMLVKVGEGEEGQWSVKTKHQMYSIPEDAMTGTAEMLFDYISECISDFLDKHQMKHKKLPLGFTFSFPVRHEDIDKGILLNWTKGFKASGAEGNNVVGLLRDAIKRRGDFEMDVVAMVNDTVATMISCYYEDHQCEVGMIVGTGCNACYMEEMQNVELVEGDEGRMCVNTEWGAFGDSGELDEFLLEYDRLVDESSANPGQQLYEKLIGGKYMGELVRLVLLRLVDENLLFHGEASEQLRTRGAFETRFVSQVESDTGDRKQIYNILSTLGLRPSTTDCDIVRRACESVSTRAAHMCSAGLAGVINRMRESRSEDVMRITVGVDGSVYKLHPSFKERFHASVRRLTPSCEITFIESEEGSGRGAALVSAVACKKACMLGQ
Assay: Glucokinase activation assay (PK/LDH-coupled, NADH depletion at 340 nm)
Assay type: biochemical
Conditions: 5 mM glucose, single value or range where N>1; for EC50: 2.5 mM ATP, pH 7.1, room temperature, read-out: EC50; for Emax: % max activation = (Va/Vo−1)×100 from fit, pH 7.1, read-out: Maximum Activation (%)
Experimental: Full-length glucokinase (beta cell isoform) was His-tagged at N-terminus and purified by a Ni column followed by size exclusion chromatography. A 320 mL column was packed in house using Superdex75 (Amersham Pharmacia, Carlsbad, Calif.) preparation grade resin. Glucose was obtained from Calbiochem (San Diego, Calif.) and other reagents were purchased from Sigma-Aldrich (St. Louis, Mo.).
All assays were performed in a Corning 384-well plate using Spectramax PLUS spectrophotometer (Molecular Devices, Sunnyvale, Calif.) at room temperature. The final assay volume was 40 ∥L. The buffer conditions used in this assay were as follows: 50 mM HEPES, 5 mM glucose, 2.5 mM ATP, 3.5 mM MgCl2, 0.7 mM NADH, 2 mM dithiothreitol, 1 unit/mL pyruvate kinase/lactate dehydrogenase (PK/LDH), 0.2 mM phosphoenolpyruvate, and 25 mM KCl. The buffer pH was 7.1. The test compound in dimethylsulfoxide solution was added to the buffer and mixed by a plate shaker for 7.5 minutes. The final concentration of dimethylsulfoxide introduced into the assay was 0.25%.
Glucokinase was added to the buffer mixture to initiate the reaction in the presence and absence of compound. The reaction was monitored by absorbance at 340 nm due to the depletion of NADH. The initial reaction velocity was measured by the slope of a linear time course of 0-300 seconds. The percentage of maximum activation was calculated by the following equation: % Maximum Activation=(Va/Vo−1)×100; wherein each of Va and Vo is defined as the initial reaction velocity in the presence and absence of the tested compound, respectively.
The glucokinase activities were measured as a function of compound concentrations.

## Cc1ccc(NC(=O)[C@H](CC2CCCC2)n2ccc(C(F)(F)F)n2)nc1 [Example 69, (S)-3-cyclopentyl-N-(5-methylpyridin-2-yl)-2-(3-(trifluoromethyl)-1H-pyrazol-1-yl)propanamide]
  EC50: 5.5 µM
  Emax: 90%

## Cc1cnc(NC(=O)[C@H](CC2CCCC2)n2ccc(C(F)(F)F)n2)cn1 [Example 70, (S)-3-cyclopentyl-N-(5-methylpyrazin-2-yl)-2-(3-(trifluoromethyl)-1H-pyrazol-1-yl)propanamide]
  EC50: 24 µM
  Emax: 124%

## CN(C)C(=O)c1cnn([C@@H](CC2CCCC2)C(=O)Nc2ccn(C)n2)c1 [Example 71, (S)-1-(3-cyclopentyl-1-(1-methyl-1H-pyrazol-3-ylamino)-1-oxopropan-2-yl)-N,N-dimethyl-1H-pyrazole-4-carboxamide]
  EC50: > 30 µM

## Cc1ccc(NC(=O)[C@H](CC2CCCC2)n2cc(C(=O)N(C)C)cn2)nc1 [Example 72, (S)-1-(3-cyclopentyl-1-(5-methylpyridin-2-ylamino)-1-oxopropan-2-yl)-N,N-dimethyl-1H-pyrazole-4-carboxamide]
  EC50: > 100 µM

## Cc1cnc(NC(=O)[C@H](CC2CCCC2)n2cc(C(=O)N(C)C)cn2)cn1 [Example 73, (S)-1-(3-cyclopentyl-1-(5-methylpyrazin-2-ylamino)-1-oxopropan-2-yl)-N,N-dimethyl-1H-pyrazole-4-carboxamide]
  EC50: > 100 µM

## Cc1cnc(NC(=O)[C@H](CC2CCOCC2)n2cnc(C(F)(F)F)c2)cn1 [Example 74, (S)—N-(5-methylpyrazin-2-yl)-3-(tetrahydro-2H-pyran-4-yl)-2-(4-(trifluoromethyl)-1H-imidazol-1-yl)propanamide]
  EC50: 8.7 µM
  Emax: 115%

## Cc1ccc(NC(=O)[C@H](CC2CCOCC2)n2cnc(C(F)(F)F)c2)nc1 [Example 75, (S)—N-(5-methylpyridin-2-yl)-3-(tetrahydro-2H-pyran-4-yl)-2-(4-(trifluoromethyl)-1H-imidazol-1-yl)propanamide]
  EC50: 0.8 to 2 µM
  Emax: 51 to 78%

## Cn1ccc(NC(=O)[C@H](CC2CCOCC2)n2cnc(C(F)(F)F)c2)n1 [Example 76, (S)—N-(1-methyl-1H-pyrazol-3-yl)-3-(tetrahydro-2H-pyran-4-yl)-2-(4-(trifluoromethyl)-1H-imidazol-1-yl)propanamide]
  EC50: 18 µM
  Emax: 138%

## O=C(Nc1nc2cccnc2s1)[C@H](CC1CCOCC1)n1cnc(C(F)(F)F)c1 [Example 77, (S)-3-(tetrahydro-2H-pyran-4-yl)-N-(thiazolo[5,4-b]pyridin-2-yl)-2-(4-(trifluoromethyl)-1H-imidazol-1-yl)propanamide]
  EC50: 18 µM
  Emax: 139%

## COc1ccc2nc(NC(=O)[C@H](CC3CCOCC3)n3cnc(C(F)(F)F)c3)sc2n1 [Example 78, (S)—N-(5-methoxythiazolo[5,4-b]pyridin-2-yl)-3-(tetrahydro-2H-pyran-4-yl)-2-(4-(trifluoromethyl)-1H-imidazol-1-yl)propanamide]
  EC50: 4.2 to 4.4 µM
  Emax: 109 to 114%

## Cn1ccc(NC(=O)[C@H](CC2CCCC2)n2nnc(S(C)(=O)=O)n2)n1 [Example 79, (S)-3-cyclopentyl-N-(1-methyl-1H-pyrazol-3-yl)-2-(5-(methylsulfonyl)-2H-tetrazol-2-yl)propanamide]
  EC50: 40 µM
  Emax: 99%

## Cc1ccc(NC(=O)[C@H](CC2CCCC2)n2nnc(S(C)(=O)=O)n2)nc1 [Example 80, (S)-3-cyclopentyl-N-(5-methylpyridin-2-yl)-2-(5-(methylsulfonyl)-2H-tetrazol-2-yl)propanamide]
  EC50: 32 µM
  Emax: 86%

## Cc1cnc(NC(=O)[C@H](CC2CCCC2)n2nnc(S(C)(=O)=O)n2)cn1 [Example 81, (S)-3-cyclopentyl-N-(5-methylpyrazin-2-yl)-2-(5-(methylsulfonyl)-2H-tetrazol-2-yl)propanamide]
  EC50: > 50 µM
